# Assay results as given in PMC8464809, “Anticancer and Structure Activity Relationship of Non-Symmetrical Choline Kinase Inhibitors” (Pharmaceutics, 2021).
# How the values were obtained:
# CCRF-CEM cells = assay: Antiproliferative MTT assay, CCRF-CEM; format: cell-based; conditions: Homo sapiens, 72 h
# Procedure: (§1) Human cervix carcinoma (HeLa) and human breast cancer (MCF-7) were grown in the DMEM medium (Gibco, Milan, Italy). B-acute lymphoblastic leukemia (RS4;11), T-acute lymphoblastic leukemia (CCRF-CEM and Jurkat), human promyelocytic cells (HL-60), and human colon adenocarcinoma (HT-29) cells were grown in RPMI medium (Gibco, Milan, Italy). Both media were supplemented with 115 units/mL of penicillin G (Gibco, Milan, Italy), 115 μg/mL of streptomycin (Invitrogen, Milan, Italy), and 10% FBS (Invitrogen, Milan, Italy). Cell lines were tested for mycoplasma contamination every 6 months by the RT-PCR analysis. Stock solutions (10 mM) of the different compounds were obtained by dissolving them in DMSO. Individual wells of 96-well tissue-culture microtiter plates were inoculated with 100 μL of complete medium containing 5 × 10^3 adherent cells or 25 × 10^3 leukemia cells. The plates were incubated at 37 °C in a humidified 5% CO2 incubator for 18 h prior to the experiments. After medium removal, 100 μL of fresh medium containing the test compound at different concentrations was added to each well and incubated at 37 °C for 72 h.
# HL-60 cells = assay: Antiproliferative MTT assay, HL-60; format: cell-based, human; conditions: for GI50: Homo sapiens, HL-60, 72 h, MTT
# Procedure: as §1
# MCF-7 cells = assay: Antiproliferative MTT assay, MCF-7; format: cell-based; conditions: Homo sapiens, MCF7, 72 h
# Procedure: as §1
# RS4;11 cells = assay: Antiproliferative MTT assay, RS4;11; format: cell-based; conditions: Homo sapiens, 72 h
# Procedure: as §1
# HeLa cells = assay: Antiproliferative MTT assay, HeLa; format: cell-based; conditions: Homo sapiens, 72 h
# Procedure: as §1
# human ChoKα1 = target: T1, human ChoKα1 (Homo sapiens, UniProt P35790); assay: Inhibition of purified ChoKα1: incorporation of 14C from [methyl-14C]choline into phosphocholine; format: biochemical; conditions: purified ChoKα1, 1 mM choline, 10 mM ATP, 37 °C, 10 min; read-out: IC50 hChoKα1
# T1 construct: made in house
# T1 sequence (P35790 whole entry): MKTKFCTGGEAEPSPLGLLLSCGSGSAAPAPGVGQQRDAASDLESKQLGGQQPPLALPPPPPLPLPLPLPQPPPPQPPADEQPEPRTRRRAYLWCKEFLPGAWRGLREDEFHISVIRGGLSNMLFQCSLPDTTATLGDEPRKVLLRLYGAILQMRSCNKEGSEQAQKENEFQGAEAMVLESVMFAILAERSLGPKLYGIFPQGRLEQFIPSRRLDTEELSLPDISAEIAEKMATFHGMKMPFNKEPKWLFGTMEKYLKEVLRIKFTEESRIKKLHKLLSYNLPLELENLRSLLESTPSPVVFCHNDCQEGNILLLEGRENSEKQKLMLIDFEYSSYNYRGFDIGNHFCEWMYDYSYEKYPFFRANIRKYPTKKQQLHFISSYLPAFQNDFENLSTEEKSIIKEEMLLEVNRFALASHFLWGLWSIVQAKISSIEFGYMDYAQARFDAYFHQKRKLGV
# Procedure: The effect of compounds 3a–h and 4a–h on ChoKα1 was assayed in purified ChoKα1 as previously described, by determining the rate of incorporation of ^14C from [methyl-^14C]choline into phosphocholine, both in the absence (control) or presence of different inhibitor concentrations. Briefly, 20 ng of purified ChoKα1 were incubated with 1 mM [methyl-^14C]choline (4500 dpm/nmol) in 100 mM Tris-HCl (pH 8.5), 10 mM MgCl2, 10 mM ATP, and incubated at 37 °C for 10 min. The reaction was stopped by immersing the reaction tubes in boiling water for 3 min. Aliquots of the reaction were applied to the origin of silica gel plates in the presence of phosphocholine (0.1 mg) and choline (0.1 mg) as carriers. The chromatography was developed in methanol/0.6% NaCl/28% NH4OH in water (50:50:5, v/v/v) as a solvent, and phosphocholine was visualized under exposure to iodine vapor. The corresponding spot was scraped and transferred to scintillation vials for measurement of radioactivity by a Beckman 6000-TA (Madrid, Spain) liquid-scintillation counter. The 50% inhibitory concentrations (IC50 value) were determined from the % activity of the enzyme at different concentrations of synthetic inhibitor using a sigmoidal dose-response curve (the ED50plus v1.0 software).
# HT-29 cells = assay: Antiproliferative MTT assay, HT-29; format: cell-based; conditions: Homo sapiens, 72 h
# Procedure: as §1
# [1] = test system: HT-29, HeLa, MCF-7, CCRF-CEM, HL-60, and RS4;11cells; assay: Antiproliferative MTT assay, panel of six human tumor cell lines; format: cell-based; conditions: HL-60, RS4;11, 72 h
# Procedure: as §1
# [2] = Cytotoxicity in PHA-stimulated peripheral blood lymphocytes (MTT); format: cell-based; conditions: human, PBL stimulated with PHA, healthy donors, read-out: GI50 PBLPHA
# Procedure: (§2) Additional experiments were conducted with peripheral blood lymphocytes (PBL) from healthy donors obtained as described previously. For cytotoxicity evaluations in proliferating PBL cultures, non-adherent cells were resuspended at 5 × 10^5 cells/mL in a growth medium containing 2.5 µg/mL PHA (Irvine Scientific). Different concentrations of the test compounds were added, and viability was determined 72 h later by the MTT test. For cytotoxicity evaluations in resting PBL cultures, non-adherent cells were resuspended (5 × 10^5 cells/mL) and treated for 72 h with the test compounds, as described above.
# [3] = Cytotoxicity in resting peripheral blood lymphocytes (MTT); format: cell-based; conditions: human, PBL not stimulated with PHA, healthy donors, read-out: GI50 PBLresting
# Procedure: as §2
# Jurkat cells = assay: Apoptosis by annexin-V/PI flow cytometry; format: cell-based, human; conditions: after 24 h of treatment, concentration dependent
# Procedure: Jurkat cells were treated with the test compounds and after different times stained with both PI, to stain DNA, and annexin V-fluorescein isothiocyanate, to stain membrane PS exposed on the cell surface, following the instructions of the manufacturer (Roche Diagnostics) of the Annexin-V-Fluos reagent.
# [4] = test system: choline uptake in HepG2 cells; assay: Choline uptake assay; format: cell-based; conditions: Homo sapiens, 10 min preincubation with the compound
# Procedure: Choline uptake was determined as previously reported. Briefly, HepG2 cells (200,000 cells/well) were incubated for 10 min at 37 °C either in a medium containing different concentrations of ChoKα1 inhibitors or only with the medium as controls. The medium was then removed and the cells were immediately exposed to a medium containing [methyl-^14C]choline (16 μM, 31 Ci/mol) for 10 min at 37 °C. The incorporation of choline was stopped by medium aspiration followed by two washes with ice-cold PBS containing 580 μM choline. The cells were solubilized in NaOH 0.1 N and an aliquot was used to determine the total amount of radiolabel taken up by the cells.
Compound,GI50 (CCRF-CEM cells),GI50 (HL-60 cells),GI50 (MCF-7 cells),GI50 (RS4;11 cells),GI50 (HeLa cells),IC50 (human ChoKα1),GI50 (HT-29 cells),"fold more potent than MN-48b (HL-60 cells; against HL-60 leukemic cells, MN-48b ref 23)","GI50 values, range over six cell lines [1]",GI50 at 72 h [2],GI50 at 72 h [3],apoptotic cells (annexin-V/PI) (Jurkat cells),IC50 [4]
Nc1cccc(OCc2ccc(C[n+]3ccc(N4CCCC4)cc3)cc2)c1 [Compound 3a],3.4 ± 0.7 µM,4.8 ± 0.4 µM,22.8 ± 4.3 µM,16.8 ± 4.8 µM,4.8 ± 0.58 µM,> 50 µM,36 ± 7.4 µM,,,,,,
Nc1cccc(OCc2ccc(-c3ccc(C[n+]4ccc(N5CCCC5)cc4)cc3)cc2)c1 [Compound 3b],,,,,,17.5 ± 1.24 µM,,,,,,,
Nc1cccc(OCc2ccc(CCc3ccc(C[n+]4ccc(N5CCCC5)cc4)cc3)cc2)c1 [Compound 3c],0.03 ± 0.003 µM,0.011 ± 0.005 µM,0.3 ± 0.1 µM,0.15 ± 0.012 µM,0.068 ± 0.028 µM,8.56 ± 0.94 µM,0.63 ± 0.14 µM,30 fold,630 to 11 nM,> 10 µM,> 10 µM,significant increase of apoptotic cells,
Nc1cccc(OCc2ccc(CCCCc3ccc(C[n+]4ccc(N5CCCC5)cc4)cc3)cc2)c1 [Compound 3d],0.015 ± 0.005 µM,0.12 ± 0.091 µM,0.5 ± 0.2 µM,0.29 ± 0.053 µM,0.16 ± 0.048 µM,6.79 ± 0.47 µM,0.58 ± 0.17 µM,,,,,,15.8 ± 0.24 µM
CN(C)c1cc[n+](Cc2ccc(COc3cccc(N)c3)cc2)cc1 [Compound 3e],1.2 ± 0.5 µM,38.7 ± 6.2 µM,23.6 ± 5.1 µM,53.6 ± 13.4 µM,8.2 ± 2.4 µM,6.33 ± 0.8 µM,26.1 ± 6.7 µM,,,,,,
CN(C)c1cc[n+](Cc2ccc(-c3ccc(COc4cccc(N)c4)cc3)cc2)cc1 [Compound 3f],0.54 ± 0.21 µM,2.4 ± 0.7 µM,7.6 ± 1.6 µM,2 ± 0.5 µM,4.2 ± 0.5 µM,6.39 ± 0.46 µM,4.4 ± 0.7 µM,,,,,,
CN(C)c1cc[n+](Cc2ccc(CCc3ccc(COc4cccc(N)c4)cc3)cc2)cc1 [Compound 3g],0.4 ± 0.26 µM,1.6 ± 0.9 µM,4.3 ± 0.9 µM,2.6 ± 0.2 µM,1.2 ± 0.2 µM,4.29 ± 0.12 µM,2.2 ± 0.9 µM,,,,,,
CN(C)c1cc[n+](Cc2ccc(CCCCc3ccc(COc4cccc(N)c4)cc3)cc2)cc1 [Compound 3h],,,,,,7.01 ± 0.13 µM,,,,,,,
Oc1cccc(NCc2ccc(C[n+]3ccc(N4CCCC4)cc3)cc2)c1 [Compound 4a],7.3 ± 2.5 µM,4.1 ± 1.2 µM,17.8 ± 5.3 µM,24.5 ± 2.9 µM,12.8 ± 2.6 µM,3.34 ± 0.34 µM,49.7 ± 11.4 µM,,,,,,
Oc1cccc(NCc2ccc(-c3ccc(C[n+]4ccc(N5CCCC5)cc4)cc3)cc2)c1 [Compound 4b],0.5 ± 0.1 µM,1.1 ± 0.3 µM,4.4 ± 0.5 µM,2.8 ± 0.6 µM,2.1 ± 0.4 µM,3.85 ± 0.1 µM,6.6 ± 2.3 µM,,,,,,
Oc1cccc(NCc2ccc(CCc3ccc(C[n+]4ccc(N5CCCC5)cc4)cc3)cc2)c1 [Compound 4c],0.14 ± 0.03 µM,0.065 ± 0.023 µM,1.7 ± 0.4 µM,0.46 ± 0.061 µM,0.86 ± 0.26 µM,3.83 ± 0.91 µM,5.3 ± 2.1 µM,,,,,,
Oc1cccc(NCc2ccc(CCCCc3ccc(C[n+]4ccc(N5CCCC5)cc4)cc3)cc2)c1 [Compound 4d],0.086 ± 0.03 µM,0.33 ± 0.074 µM,2.8 ± 0.5 µM,0.71 ± 0.16 µM,0.39 ± 0.12 µM,3.36 ± 0.17 µM,5.8 ± 1.9 µM,,,,,,
CN(C)c1cc[n+](Cc2ccc(CNc3cccc(O)c3)cc2)cc1 [Compound 4e],8.4 ± 1.6 µM,4 ± 0.9 µM,6.7 ± 1.5 µM,31 ± 2.6 µM,12.4 ± 1.8 µM,2.82 ± 0.16 µM,23.8 ± 8.2 µM,,,,,,
CN(C)c1cc[n+](Cc2ccc(-c3ccc(CNc4cccc(O)c4)cc3)cc2)cc1 [Compound 4f],1.1 ± 0.4 µM,1.3 ± 0.4 µM,5 ± 1 µM,3.7 ± 0.4 µM,3.6 ± 0.4 µM,,13.2 ± 5 µM,,,3.6 ± 0.8 µM,7.6 ± 1.1 µM,significant increase of apoptotic cells,3.5 ± 0.07 µM
CN(C)c1cc[n+](Cc2ccc(CCc3ccc(CNc4cccc(O)c4)cc3)cc2)cc1 [Compound 4g],0.7 ± 0.1 µM,0.25 ± 0.066 µM,2.4 ± 0.2 µM,1.1 ± 0.3 µM,1.7 ± 0.2 µM,3.66 ± 0.11 µM,5.2 ± 1.7 µM,,,,,,
CN(C)c1cc[n+](Cc2ccc(CCCCc3ccc(CNc4cccc(O)c4)cc3)cc2)cc1 [Compound 4h],0.16 ± 0.034 µM,0.37 ± 0.079 µM,2.2 ± 1 µM,0.5 ± 0.08 µM,0.7 ± 0.1 µM,,3.6 ± 1.4 µM,,,,,,
